Assay results taken from ChEMBL document CHEMBL1201862, “PubChem BioAssay data set” (2004).
Values joined by “and” are separate entries in the source; they are usually repeats but may differ in a detail not shown here. Equal entries are not always repeated. Structures can show the parent of a compound that is named as a salt. One block for each compound: values may come before it. Active and inactive are the calls of the source.

Assays:
[1] = target: T1, Voltage-gated N-type calcium channel alpha-1B subunit/Amyloid beta A4 precursor protein-binding family A member 1 (Homo sapiens, UniProt Q00975+Q02410); format: protein assay
T1 sequence (Q00975 whole entry): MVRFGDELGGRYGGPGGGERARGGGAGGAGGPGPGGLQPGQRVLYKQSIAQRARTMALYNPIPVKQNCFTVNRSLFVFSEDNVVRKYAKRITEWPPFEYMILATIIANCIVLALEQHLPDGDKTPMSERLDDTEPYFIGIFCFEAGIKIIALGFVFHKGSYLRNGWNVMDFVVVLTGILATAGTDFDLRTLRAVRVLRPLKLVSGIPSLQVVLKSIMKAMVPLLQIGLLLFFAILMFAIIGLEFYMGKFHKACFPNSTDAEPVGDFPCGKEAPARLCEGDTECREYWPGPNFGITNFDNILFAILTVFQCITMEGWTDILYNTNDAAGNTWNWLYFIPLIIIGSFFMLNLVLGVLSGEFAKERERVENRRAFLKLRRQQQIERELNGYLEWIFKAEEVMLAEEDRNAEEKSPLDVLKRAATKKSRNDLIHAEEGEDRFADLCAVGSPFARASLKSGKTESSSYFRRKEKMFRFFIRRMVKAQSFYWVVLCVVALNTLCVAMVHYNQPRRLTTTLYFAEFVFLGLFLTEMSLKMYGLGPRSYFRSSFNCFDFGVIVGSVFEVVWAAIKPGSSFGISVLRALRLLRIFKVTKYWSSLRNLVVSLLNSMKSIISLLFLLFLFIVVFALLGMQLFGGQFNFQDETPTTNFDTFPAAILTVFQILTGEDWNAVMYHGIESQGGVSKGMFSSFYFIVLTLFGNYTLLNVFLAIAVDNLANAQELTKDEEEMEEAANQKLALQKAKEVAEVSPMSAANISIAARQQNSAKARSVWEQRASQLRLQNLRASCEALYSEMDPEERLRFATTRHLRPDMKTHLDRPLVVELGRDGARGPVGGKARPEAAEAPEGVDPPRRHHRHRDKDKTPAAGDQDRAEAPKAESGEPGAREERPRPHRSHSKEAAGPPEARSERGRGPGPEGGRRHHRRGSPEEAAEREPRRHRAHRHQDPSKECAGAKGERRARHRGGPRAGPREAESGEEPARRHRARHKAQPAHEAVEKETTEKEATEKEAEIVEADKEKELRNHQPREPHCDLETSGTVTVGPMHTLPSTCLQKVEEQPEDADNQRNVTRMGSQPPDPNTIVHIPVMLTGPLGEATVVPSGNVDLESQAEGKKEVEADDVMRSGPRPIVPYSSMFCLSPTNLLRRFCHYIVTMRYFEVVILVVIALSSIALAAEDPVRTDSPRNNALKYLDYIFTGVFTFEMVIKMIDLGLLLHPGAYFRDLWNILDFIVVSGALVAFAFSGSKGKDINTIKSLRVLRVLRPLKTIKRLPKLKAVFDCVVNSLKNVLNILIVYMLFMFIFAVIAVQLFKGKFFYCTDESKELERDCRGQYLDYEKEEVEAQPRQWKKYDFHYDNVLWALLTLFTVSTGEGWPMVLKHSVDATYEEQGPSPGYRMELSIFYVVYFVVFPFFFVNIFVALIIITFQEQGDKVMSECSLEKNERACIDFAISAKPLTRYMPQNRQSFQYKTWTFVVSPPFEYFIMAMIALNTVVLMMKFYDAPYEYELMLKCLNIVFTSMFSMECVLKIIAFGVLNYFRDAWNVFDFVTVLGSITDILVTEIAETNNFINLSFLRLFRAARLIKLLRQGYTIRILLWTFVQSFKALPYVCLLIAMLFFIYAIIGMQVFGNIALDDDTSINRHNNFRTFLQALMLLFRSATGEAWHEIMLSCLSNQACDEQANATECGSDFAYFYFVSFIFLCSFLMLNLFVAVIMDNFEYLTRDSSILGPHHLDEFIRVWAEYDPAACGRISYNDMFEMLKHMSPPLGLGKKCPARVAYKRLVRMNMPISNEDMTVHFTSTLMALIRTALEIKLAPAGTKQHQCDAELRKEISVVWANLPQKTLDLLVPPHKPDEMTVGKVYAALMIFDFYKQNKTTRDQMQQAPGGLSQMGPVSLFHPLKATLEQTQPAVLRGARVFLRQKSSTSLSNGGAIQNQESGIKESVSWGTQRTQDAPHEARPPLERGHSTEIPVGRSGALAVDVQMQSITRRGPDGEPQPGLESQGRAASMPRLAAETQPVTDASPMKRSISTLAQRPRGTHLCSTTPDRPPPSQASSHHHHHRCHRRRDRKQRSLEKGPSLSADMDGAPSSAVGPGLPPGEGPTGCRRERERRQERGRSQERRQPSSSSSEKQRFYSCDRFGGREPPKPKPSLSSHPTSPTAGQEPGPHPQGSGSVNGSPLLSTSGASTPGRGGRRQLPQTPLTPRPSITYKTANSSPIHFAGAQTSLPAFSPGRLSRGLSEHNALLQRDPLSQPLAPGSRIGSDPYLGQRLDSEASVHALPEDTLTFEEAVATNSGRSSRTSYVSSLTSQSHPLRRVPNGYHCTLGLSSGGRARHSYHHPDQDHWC
T1 sequence (Q02410 whole entry): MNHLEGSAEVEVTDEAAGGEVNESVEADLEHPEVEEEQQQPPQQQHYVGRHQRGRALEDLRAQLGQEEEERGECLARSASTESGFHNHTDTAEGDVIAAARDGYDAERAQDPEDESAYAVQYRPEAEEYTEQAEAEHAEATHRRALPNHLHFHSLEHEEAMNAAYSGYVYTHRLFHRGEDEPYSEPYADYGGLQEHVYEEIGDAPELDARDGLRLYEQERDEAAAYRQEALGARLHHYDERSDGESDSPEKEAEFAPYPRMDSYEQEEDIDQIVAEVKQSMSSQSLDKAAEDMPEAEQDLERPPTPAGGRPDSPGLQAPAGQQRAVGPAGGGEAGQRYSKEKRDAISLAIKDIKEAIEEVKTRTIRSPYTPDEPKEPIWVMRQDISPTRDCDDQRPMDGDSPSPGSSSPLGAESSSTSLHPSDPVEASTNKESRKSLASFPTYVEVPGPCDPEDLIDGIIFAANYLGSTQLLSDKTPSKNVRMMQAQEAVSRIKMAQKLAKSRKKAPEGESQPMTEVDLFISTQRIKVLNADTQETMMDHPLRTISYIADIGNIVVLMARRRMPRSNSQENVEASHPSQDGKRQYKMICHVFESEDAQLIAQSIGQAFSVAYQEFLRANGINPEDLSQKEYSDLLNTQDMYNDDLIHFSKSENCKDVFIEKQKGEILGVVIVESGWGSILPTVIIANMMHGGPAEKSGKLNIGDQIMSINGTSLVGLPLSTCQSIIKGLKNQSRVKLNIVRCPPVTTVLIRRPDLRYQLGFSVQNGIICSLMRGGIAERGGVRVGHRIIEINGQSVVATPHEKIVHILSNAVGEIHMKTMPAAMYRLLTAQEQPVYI

[2] = target: T1, Voltage-gated N-type calcium channel alpha-1B subunit/Amyloid beta A4 precursor protein-binding family A member 1; format: protein assay; remark: listed apart in the source
[3] = target: Eukaryotic translation initiation factor 4E (Mus musculus, UniProt P63073); assay: eIF4E–eIF4G protein interaction inhibitors, dose response, biochemical, TR-FRET (AID 855); format: functional;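 note: potency for disrupting eIF4E binding to eIF4GI seen as loss of FRET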
[4] = target: T2, Tyrosine-protein phosphatase non-receptor type 7 (Homo sapiens, UniProt P35236); assay: redox-dependent HePTP inhibition, mechanism study, biochemical, fluorescence (AID 2068); format: functional
T2 sequence (P35236 whole entry): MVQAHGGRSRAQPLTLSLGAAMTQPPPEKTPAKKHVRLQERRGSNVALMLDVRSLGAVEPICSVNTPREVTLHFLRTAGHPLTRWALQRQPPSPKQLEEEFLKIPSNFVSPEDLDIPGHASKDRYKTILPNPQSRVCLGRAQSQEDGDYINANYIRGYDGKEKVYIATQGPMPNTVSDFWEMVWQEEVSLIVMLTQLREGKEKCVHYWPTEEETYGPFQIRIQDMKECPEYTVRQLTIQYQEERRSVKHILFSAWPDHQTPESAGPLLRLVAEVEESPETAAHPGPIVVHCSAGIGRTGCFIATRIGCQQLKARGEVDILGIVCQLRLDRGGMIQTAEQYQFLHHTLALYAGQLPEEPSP

[5] = target: Glutathione-S-transferase (Schistosoma japonicum, UniProt Q26513); assay: biotin-GST/anti-GST TR-FRET signal inhibitors, dose response, artefact control for Vif-APOBEC3G degradation inhibitor project, biochemical (AID 1117362); format: functional
[6] = target: T3, Short transient receptor potential channel 4 (Mus musculus, UniProt Q9QUQ5); assay: TRPC4 positive allosteric modulators, dose response, cell-based, HEK293 TRPC4/mu-opioid, Fluo-4 calcium, EC20 DAMGO (AID 434941); format: functional
T3 sequence (Q9QUQ5 whole entry): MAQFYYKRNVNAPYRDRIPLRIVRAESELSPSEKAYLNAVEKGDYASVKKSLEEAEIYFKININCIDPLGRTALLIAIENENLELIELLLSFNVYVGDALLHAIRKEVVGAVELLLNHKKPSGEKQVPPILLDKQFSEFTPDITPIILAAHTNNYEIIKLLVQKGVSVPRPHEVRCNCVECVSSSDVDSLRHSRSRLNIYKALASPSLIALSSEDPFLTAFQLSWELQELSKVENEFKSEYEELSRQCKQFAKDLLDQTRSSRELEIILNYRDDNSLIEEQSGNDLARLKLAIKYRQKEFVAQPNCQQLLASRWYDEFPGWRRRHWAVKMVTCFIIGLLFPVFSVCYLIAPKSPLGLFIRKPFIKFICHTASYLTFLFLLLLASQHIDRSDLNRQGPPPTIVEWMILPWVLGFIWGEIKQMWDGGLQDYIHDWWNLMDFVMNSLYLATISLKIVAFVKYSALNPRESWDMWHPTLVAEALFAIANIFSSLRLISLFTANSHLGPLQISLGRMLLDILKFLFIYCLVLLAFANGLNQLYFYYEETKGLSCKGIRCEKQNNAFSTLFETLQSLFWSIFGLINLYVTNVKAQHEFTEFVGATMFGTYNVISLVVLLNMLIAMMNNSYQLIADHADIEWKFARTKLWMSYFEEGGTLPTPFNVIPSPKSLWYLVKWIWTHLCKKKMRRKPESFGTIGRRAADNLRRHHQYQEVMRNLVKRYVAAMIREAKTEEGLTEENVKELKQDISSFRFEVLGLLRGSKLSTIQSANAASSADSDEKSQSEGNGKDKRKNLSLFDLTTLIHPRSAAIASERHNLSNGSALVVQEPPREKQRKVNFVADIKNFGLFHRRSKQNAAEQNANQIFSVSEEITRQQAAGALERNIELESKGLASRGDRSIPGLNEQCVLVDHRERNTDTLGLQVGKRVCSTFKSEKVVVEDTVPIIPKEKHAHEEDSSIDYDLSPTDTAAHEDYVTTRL

[7] = test system: Trypanosoma cruzi; assay: growth inhibition of intracellular Trypanosoma cruzi, dose response, cell-based, plate reader, dry powder, set 3 (AID 493197); format: functional
[8] = Luminescence Cell-Based/Microorganism Confirmation at Dose of Inhibitors of Trypanosoma cruzi Infection. [Related pubchem assays: 1885, 1968 ]; format: functional
[9] = Luminescence Cell-Based Secondary HTS screen to identify cytotoxic compounds of NIH3T3 cells. [Related pubchem assays: 1885, 1968 ]; format: functional
[10] = cytotoxicity in NIH/3T3 mouse fibroblasts, dose response, cytotoxicity control, cell-based, mouse embryonic fibroblasts, dry powder, set 2 (AID 493247); format: functional; details: Fibroblast
[11] = target: T4, Mannose-6-phosphate isomerase (Homo sapiens, UniProt P34949); assay: PMI enzyme inhibitors, confirmation, biochemical, fluorescence intensity (AID 1535)
T4 sequence (P34949 whole entry): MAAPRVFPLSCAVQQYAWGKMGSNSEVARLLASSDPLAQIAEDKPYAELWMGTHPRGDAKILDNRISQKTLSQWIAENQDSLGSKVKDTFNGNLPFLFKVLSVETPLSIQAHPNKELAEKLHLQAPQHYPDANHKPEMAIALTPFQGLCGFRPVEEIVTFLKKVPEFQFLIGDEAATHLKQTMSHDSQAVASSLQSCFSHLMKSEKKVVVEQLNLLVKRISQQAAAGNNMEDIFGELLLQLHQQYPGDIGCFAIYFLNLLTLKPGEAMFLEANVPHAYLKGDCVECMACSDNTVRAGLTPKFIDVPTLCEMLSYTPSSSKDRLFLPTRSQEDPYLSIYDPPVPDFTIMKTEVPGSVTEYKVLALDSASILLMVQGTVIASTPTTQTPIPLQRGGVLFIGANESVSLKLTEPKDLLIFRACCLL

[12] = target: T5, Phosphomannomutase 2 (Homo sapiens, UniProt O15305); assay: Counter screen SAR assay for PMM2 inhibitors via a fluorescence intensity assay. [Related pubchem assays (depositor defined):AID1545, AID1574]
T5 sequence (O15305 whole entry): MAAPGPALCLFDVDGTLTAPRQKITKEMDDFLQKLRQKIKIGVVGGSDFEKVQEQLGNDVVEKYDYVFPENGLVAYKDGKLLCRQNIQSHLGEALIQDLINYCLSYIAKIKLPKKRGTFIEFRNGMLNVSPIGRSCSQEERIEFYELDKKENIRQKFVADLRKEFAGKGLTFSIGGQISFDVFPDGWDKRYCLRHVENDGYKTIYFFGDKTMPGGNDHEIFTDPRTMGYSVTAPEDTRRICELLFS

[13] = target: Hexokinase (Trypanosoma brucei, UniProt Q38C41); assay: Confirmation assay for inhibitors of Trypanosoma brucei hexokinase 1-Analogue-first series. [Related pubchem assays (depositor defined):AID1430, AID1632, AID2516, AID2560, AID2579, AID2600, AID449725, AID492951]; format: functional
[14] = target: Mu-type opioid receptor (Homo sapiens, UniProt P35372); assay: SAR Analysis of Antagonists of the MOR Receptor using an Image-Based Assay - Set 3. [Related pubchem assays (depositor defined):AID1777, AID1785, AID1786, AID1966, AID2133, AID2136, AID2284, AID2285, AID2420]; format: functional
[15] = target: T6, Kappa-type opioid receptor (Homo sapiens, UniProt P41145); assay: SAR analysis of small molecule antagonists of the kappa opioid receptor via a luminescent beta-arrestin assay - Set 3. [Related pubchem assays (depositor defined):AID1777, AID1778, AID1785, AID1786, AID1966, AID2133, AID2136, AID2285, AID2495]; format: functional
T6 sequence (P41145 whole entry): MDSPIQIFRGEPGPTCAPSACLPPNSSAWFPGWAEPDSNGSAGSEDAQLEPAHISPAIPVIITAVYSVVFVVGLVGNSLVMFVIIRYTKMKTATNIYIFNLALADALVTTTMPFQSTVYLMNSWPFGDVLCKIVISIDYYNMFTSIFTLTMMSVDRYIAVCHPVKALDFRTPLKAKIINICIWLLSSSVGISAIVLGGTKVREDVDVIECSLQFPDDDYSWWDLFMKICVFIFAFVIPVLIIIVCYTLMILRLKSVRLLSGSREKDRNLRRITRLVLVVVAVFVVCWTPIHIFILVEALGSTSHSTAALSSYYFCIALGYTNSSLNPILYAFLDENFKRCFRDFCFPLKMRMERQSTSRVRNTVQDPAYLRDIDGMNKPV

[16] = target: T6, Kappa-type opioid receptor; assay: SAR analysis of Antagonists of the Kappa Opioid Receptor (KOR) using an Image-Based Assay - Set 3. [Related pubchem assays (depositor defined):AID1777, AID1785]; format: functional
[17] = target: Delta-type opioid receptor (Homo sapiens, UniProt P41143); assay: SAR Analysis of Antagonists of the DOR Receptor using an Image-Based Assay - Set 3. [Related pubchem assays (depositor defined):AID1777, AID1785]; format: functional;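 note: U2OS cells expressing DOR1 and beta-arrestin GFP stimulated with 100 nM SNC80; imaging of GFP-tagged beta-arrestin moving into spots after receptor activation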
[18] = target: T7, Intestinal-type alkaline phosphatase (Homo sapiens, UniProt P09923); assay: human intestinal alkaline phosphatase activators, dose response, biochemical, luminescence, uHTS hits (AID 463120); format: functional
T7 sequence (P09923 whole entry): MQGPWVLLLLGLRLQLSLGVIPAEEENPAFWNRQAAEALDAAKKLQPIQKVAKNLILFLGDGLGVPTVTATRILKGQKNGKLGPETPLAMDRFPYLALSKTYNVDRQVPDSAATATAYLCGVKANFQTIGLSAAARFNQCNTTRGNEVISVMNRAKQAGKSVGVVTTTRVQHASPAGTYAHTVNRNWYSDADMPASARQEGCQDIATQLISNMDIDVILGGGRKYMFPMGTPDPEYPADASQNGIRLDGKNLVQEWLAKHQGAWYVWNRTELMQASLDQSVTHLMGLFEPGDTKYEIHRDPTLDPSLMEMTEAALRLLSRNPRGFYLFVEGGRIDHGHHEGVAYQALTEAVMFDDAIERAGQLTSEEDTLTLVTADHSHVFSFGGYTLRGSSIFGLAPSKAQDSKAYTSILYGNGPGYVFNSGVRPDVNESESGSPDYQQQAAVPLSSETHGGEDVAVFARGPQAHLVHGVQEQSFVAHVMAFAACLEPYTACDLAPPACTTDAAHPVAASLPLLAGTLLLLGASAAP

[19] = NIH-3T3 fibroblast cytotoxicity, dose response, cytotoxicity control, cell-based, fluorescence, Alamar Blue, secondary assay (AID 2327); format: functional;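 note: NIH-3T3 mouse fibroblasts cultured with fluconazole at 8 µg/mL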
[20] = target: T8, SUMO-activating enzyme (Homo sapiens, UniProt Q9UBT2); assay: SUMOylation inhibitor hit validation, confirmation, SUMOylation inhibitor project, biochemical, AlphaScreen (AID 2018); format: functional
T8 sequence (Q9UBE0 whole entry): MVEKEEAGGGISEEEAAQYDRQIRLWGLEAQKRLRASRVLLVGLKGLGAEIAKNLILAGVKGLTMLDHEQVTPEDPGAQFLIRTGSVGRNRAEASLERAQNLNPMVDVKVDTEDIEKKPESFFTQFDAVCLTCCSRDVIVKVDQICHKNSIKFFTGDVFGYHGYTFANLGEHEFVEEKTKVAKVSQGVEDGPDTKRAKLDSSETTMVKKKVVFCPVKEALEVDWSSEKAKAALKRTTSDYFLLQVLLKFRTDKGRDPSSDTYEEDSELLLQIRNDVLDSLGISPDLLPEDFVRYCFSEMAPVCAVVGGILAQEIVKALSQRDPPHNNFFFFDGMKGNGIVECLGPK
T8 sequence (Q9UBT2 whole entry): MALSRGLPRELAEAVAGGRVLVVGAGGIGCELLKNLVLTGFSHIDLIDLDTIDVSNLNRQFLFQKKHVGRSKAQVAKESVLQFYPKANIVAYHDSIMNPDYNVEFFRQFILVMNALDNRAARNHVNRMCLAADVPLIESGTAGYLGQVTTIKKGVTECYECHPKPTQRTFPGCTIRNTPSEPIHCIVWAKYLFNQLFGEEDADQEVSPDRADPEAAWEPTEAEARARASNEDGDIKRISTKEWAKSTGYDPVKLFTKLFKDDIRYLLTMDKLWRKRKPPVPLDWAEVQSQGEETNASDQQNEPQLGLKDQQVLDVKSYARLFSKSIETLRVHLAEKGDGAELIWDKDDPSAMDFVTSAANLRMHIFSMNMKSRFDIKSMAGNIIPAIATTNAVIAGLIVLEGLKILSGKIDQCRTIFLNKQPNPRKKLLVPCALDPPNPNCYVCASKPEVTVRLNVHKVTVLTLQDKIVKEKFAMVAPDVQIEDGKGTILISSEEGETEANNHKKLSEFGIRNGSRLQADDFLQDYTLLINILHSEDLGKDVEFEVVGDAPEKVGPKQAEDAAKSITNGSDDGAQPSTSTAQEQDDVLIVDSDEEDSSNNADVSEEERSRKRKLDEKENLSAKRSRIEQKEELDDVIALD

[21] = target: T8, SUMO-activating enzyme; assay: inhibitors of in vitro SUMOylation cascade, primary screen, biochemical, HTRF, uHTS (AID 2006); format: protein-complex assay
[22] = target: Intestinal-type alkaline phosphatase (Mus musculus, UniProt P24822); assay: PubChem AID 488875; format: functional
[23] = C. albicans growth with fluconazole, confirmation, fluorescence, retest (AID 2467); format: functional, cell-based
[24] = target: T7, Intestinal-type alkaline phosphatase; assay: human IAP activators, dose response, biochemical, luminescent, uHTS hits, set 2 (AID 488817); format: functional;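 note: potency of activators that raise enzyme activity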
[25] = target: T9, Alkaline phosphatase, tissue-nonspecific isozyme (Homo sapiens, UniProt P05186); assay: TNAP enzyme activators, dose response, selectivity assay for human IAP activator project, biochemical, TNAP isozyme, human IAP uHTS hits (AID 488886); format: functional;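 note: potency of compounds raising TNAP activity as a selectivity check on IAP activators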
T9 sequence (P05186 whole entry): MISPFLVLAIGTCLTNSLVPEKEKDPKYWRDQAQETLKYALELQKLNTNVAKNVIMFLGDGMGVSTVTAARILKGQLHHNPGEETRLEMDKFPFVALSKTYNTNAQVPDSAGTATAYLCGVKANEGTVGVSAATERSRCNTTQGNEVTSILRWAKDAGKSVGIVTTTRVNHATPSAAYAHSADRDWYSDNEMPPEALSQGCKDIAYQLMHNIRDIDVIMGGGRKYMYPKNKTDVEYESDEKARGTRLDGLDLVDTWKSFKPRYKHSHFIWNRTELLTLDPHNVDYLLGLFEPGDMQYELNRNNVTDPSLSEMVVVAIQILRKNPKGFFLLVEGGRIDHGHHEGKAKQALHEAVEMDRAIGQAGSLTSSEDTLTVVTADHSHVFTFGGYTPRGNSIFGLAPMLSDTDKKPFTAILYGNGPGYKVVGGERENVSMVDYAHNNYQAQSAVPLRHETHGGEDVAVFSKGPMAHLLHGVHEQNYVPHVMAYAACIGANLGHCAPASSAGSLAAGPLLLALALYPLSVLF

[26] = target: G-protein coupled receptor 55 (Homo sapiens, UniProt Q9Y2T6); assay: GPR55 antagonists blocking LPI-driven arrestin recruitment, primary screen, imaging, U2OS, beta-arrestin-GFP, LPI agonist (AID 2013); format: functional;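 note: antagonist potency measured as reduced agonist-driven arrestin aggregation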

- IC50 [1]: 0.507 µM (active)
- IC50 [2]: 20 µM (active)
- IC50 [3]: 9.25 µM (active)
- IC50 [4]: 841 nM (active) and 537 nM (active)
- IC50 [5]: > 100 µM (active)
SMILES: O=C(NCCCO)Nc1ccc2nc(-c3ccco3)c(-c3ccco3)nc2c1

- EC50 [6]: 5.96 µM (active)
SMILES: CCOc1ccc(-n2c(SCC(=O)O)nc3sc4c(c3c2=O)CCCC4)cc1

SMILES: CN(Cc1ccccc1)C(=O)C1CCCN(Cc2cccc(Cl)c2)C1 (stereo unspecified)
- AC50 [7]: 0.57 µM (active)
- EC50 [8]: 0.231 µM (active)
- EC50 [9]: > 195 µM (not active)
- AC50 [10]: 70.3 µM (active)

SMILES: COc1cccc(-n2sc3ccccc3c2=O)c1
- IC50 [11]: 4.19 µM (active)
- IC50 [12]: 14.3 µM (active)
- IC50 [13]: 2.52 µM (active)

- IC50 [14]: 10.3 µM (inactive)
- IC50 [15]: 5.57 µM (active)
- IC50 [16]: 2.93 µM (active)
- IC50 [17]: > 32 µM (inactive)
SMILES: CCN(CCNC(=O)c1ccc(CNS(=O)(=O)c2ccc(C)cc2)cc1)Cc1ccccc1

SMILES: COc1cccc(/C=N\NC(=O)C2=NNC(=O)C2C)c1O (stereo unspecified)
- EC50 [18]: 6.53 µM (active)
- EC50 [19]: > 160 µM (inconclusive)
- IC50 [20]: 5.18 µM (active)
- IC50 [21]: 18.3 µM (active)
- EC50 [22]: > 100 µM (inactive)
- EC50 [23]: > 38 µM (not active)
- EC50 [24]: 9.07 µM (active)
- EC50 [25]: 8.88 µM (active)

- IC50 [26]: 3.1 µM (active)
SMILES: CC(NCCC(c1ccccc1)c1ccccc1)c1ccccc1 (stereo unspecified) [FENDILINE HYDROCHLORIDE]
